Measured values reported in patent US5416222A, “3-pyrrolidine methanamines wherein the alpha-carbon is substituted by 1 or 2 lower alkyl groups which are intermediates for pyridone-carboxylic acid derivatives” (Daiichi Seiyaku Co., Ltd., priority 1985, dated 1995).
In brackets after ≈: the same amount, converted by molar mass.

Columns and labels:
Experiment in all cases: antimicrobial activity, MIC, standard process of Japan Society of Chemotherapy
Type in all cases: cell-based
Ps. aeruginosa, 2128 = details: for MIC: Pseudomonas aeruginosa, 2128, Ps. aeruginosa, read-out: minimum growth inhibitory concentration (MIC); for minimum growth inhibitory concentration (MIC): Ps. aeruginosa
Procedure: (§1) The antimicrobial activities of the compounds of the present invention were determined according to a standard process designated by the Japan Society of Chemotherapy and the minimum growth inhibitory concentrations (MIC) (μg/ml) the compounds were determined.

S. aureus, 209P = details: for MIC: Staphylococcus aureus, read-out: minimum growth inhibitory concentration (MIC)
Procedure: as §1

Str. pyogenes, G-36 = details: for MIC: Streptococcus pyogenes, G36, Str. pyogenes, read-out: minimum growth inhibitory concentration (MIC); for minimum growth inhibitory concentration (MIC): Str. pyogenes
Procedure: as §1

E. coli, NIHJ = details: for MIC: Escherichia coli, read-out: minimum growth inhibitory concentration (MIC)
Procedure: as §1

S. epidermidis, 56500 = details: for MIC: Staphylococcus epidermidis, 56500, S. epidermidis, read-out: minimum growth inhibitory concentration (MIC); for minimum growth inhibitory concentration (MIC): S. epidermidis
Procedure: as §1

Ps. maltophilia, IID1275 = details: for MIC: Stenotrophomonas maltophilia, IID1275, Ps. maltophilia, read-out: minimum growth inhibitory concentration (MIC); for minimum growth inhibitory concentration (MIC): Ps. maltophilia
Procedure: as §1

[1] = test system: Str. faecalis, ATCC 19433; details: for MIC: Enterococcus faecalis, ATCC19433, Str. faecalis, read-out: minimum growth inhibitory concentration (MIC); for minimum growth inhibitory concentration (MIC): Str. faecalis
Procedure: as §1

Ps. cepacia, IID1340 = details: for MIC: Burkholderia cepacia, IID1340, Ps. cepacia, read-out: minimum growth inhibitory concentration (MIC); for minimum growth inhibitory concentration (MIC): Ps. cepacia
Procedure: as §1

Pr. mirabilis, IF03849 = details: for MIC: Proteus mirabilis, IF03849, Pr. mirabilis, read-out: minimum growth inhibitory concentration (MIC); for minimum growth inhibitory concentration (MIC): Pr. mirabilis
Procedure: as §1

Pr. vulgaris, 3167 = details: for MIC: Proteus vulgaris, 3167, Pr. vulgaris, read-out: minimum growth inhibitory concentration (MIC); for minimum growth inhibitory concentration (MIC): Pr. vulgaris
Procedure: as §1

Ser. marcescens, 13001 = details: for MIC: Serratia marcescens, 13001, Ser. marcescens, read-out: minimum growth inhibitory concentration (MIC); for minimum growth inhibitory concentration (MIC): Ser. marcescens
Procedure: as §1

Ps. aeruginosa, 2063 = details: for MIC: Pseudomonas aeruginosa, 2063, Ps. aeruginosa, read-out: minimum growth inhibitory concentration (MIC); for minimum growth inhibitory concentration (MIC): Ps. aeruginosa
Procedure: as §1

Sh. flexneri, 2a5503 = details: for MIC: Shigella flexneri, read-out: minimum growth inhibitory concentration (MIC)
Procedure: as §1

| Molecule | MIC (Ps. aeruginosa, 2128) [µg/mL] | MIC (S. aureus, 209P) [µg/mL] | MIC (Str. pyogenes, G-36) [µg/mL] | MIC (E. coli, NIHJ) [µg/mL] | MIC (S. epidermidis, 56500) [µg/mL] | MIC (Ps. maltophilia, IID1275) [µg/mL] | MIC [1] [µg/mL] | MIC (Ps. cepacia, IID1340) [µg/mL] | MIC (Pr. mirabilis, IF03849) [µg/mL] | MIC (Pr. vulgaris, 3167) [µg/mL] | MIC (Ser. marcescens, 13001) [µg/mL] | MIC (Ps. aeruginosa, 2063) [µg/mL] | MIC (Sh. flexneri, 2a5503) [µg/mL] | minimum growth inhibitory concentration (MIC) (Ps. aeruginosa, 2128) [µg/mL] | minimum growth inhibitory concentration (MIC) (Str. pyogenes, G-36) [µg/mL] | minimum growth inhibitory concentration (MIC) (S. epidermidis, 56500) [µg/mL] | minimum growth inhibitory concentration (MIC) [1] [µg/mL] | minimum growth inhibitory concentration (MIC) (Ps. cepacia, IID1340) [µg/mL] | minimum growth inhibitory concentration (MIC) (Pr. mirabilis, IF03849) [µg/mL] | minimum growth inhibitory concentration (MIC) (Pr. vulgaris, 3167) [µg/mL] | other results |
| --- | --- | --- | --- | --- | --- | --- | --- | --- | --- | --- | --- | --- | --- | --- | --- | --- | --- | --- | --- | --- | --- |
| CCC(N)C1CCN(c2c(F)cc3c(=O)c(C(=O)O)cn(CC)c3c2F)C1 (single isomer, unassigned) [Example 20, 1-ethyl-6,8-difluoro-7-[3-(1-aminopropyl)-1-pyrrolidinyl]-1,4-dihydro-4-oxoquinoline-3-carboxylic acid] | 0.2 (≈ 0.527 µM) | ≤ 0.05 | ≤ 0.05 | ≤ 0.05 | ≤ 0.05 | 0.2 (≈ 0.527 µM) | ≤ 0.05 | 0.39 (≈ 1.03 µM) | 0.1 (≈ 0.264 µM) | ≤ 0.05 | 0.1 (≈ 0.264 µM) | 0.39 (≈ 1.03 µM) | ≤ 0.05 |  |  |  |  |  |  |  |  |
| 1-Cyclopropyl-6,8-difluoro-1,4-dihydro-7-[3-(2S)-pyrrolidinyl)-1-pyrrolidinyl)-1-pyrrolidinyl]-4-oxoquinoline-3-carboxylic acid [Example 17] |  |  |  |  |  |  |  |  |  |  |  |  |  | 0.20 | 0.10 | 0.10 | 0.10 | 0.78 | 0.20 | 0.10 | minimum growth inhibitory concentration (MIC) (S. aureus, 209P): ≤ 0.05 µg/mL; minimum growth inhibitory concentration (MIC) (E. coli, NIHJ): ≤ 0.05 µg/mL; minimum growth inhibitory concentration (MIC) (Ps. maltophilia, IID1275): 0.39 µg/mL; minimum growth inhibitory concentration (MIC) (Ser. marcescens, 13001): 0.10 µg/mL; minimum growth inhibitory concentration (MIC) (Ps. aeruginosa, 2063): 0.39 µg/mL; minimum growth inhibitory concentration (MIC) (Sh. flexneri, 2a5503): ≤ 0.05 µg/mL |
| CNC(C)(C)C1CCN(c2c(F)cc3c(=O)c(C(=O)O)cn(C4CC4)c3c2F)C1 (stereo not shown) [Example 14, 1-Cyclopropyl-6,8-difluoro-1,4-dihydro-7-[3-(1-methyl-1-methylamino)ethyl-1-pyrrolidinyl]-4-oxoquinoline-3-carboxylic acid] | 0.39 (≈ 0.962 µM) | 0.2 (≈ 0.493 µM) | 0.1 (≈ 0.247 µM) | ≤ 0.05 | 0.2 (≈ 0.493 µM) | 0.39 (≈ 0.962 µM) | 0.1 (≈ 0.247 µM) | 1.56 (≈ 3.85 µM) | 0.2 (≈ 0.493 µM) | 0.2 (≈ 0.493 µM) | 0.39 (≈ 0.962 µM) | 3.13 (≈ 7.72 µM) | ≤ 0.05 |  |  |  |  |  |  |  |  |
| CCC(N)C1CCN(c2c(F)cc3c(=O)c(C(=O)O)cn(CC)c3c2F)C1 (stereo not shown) [Example 10, 7-[3-(1-Aminopropyl)-1-pyrrolindinyl]-1-ethyl-6,8-difluoro-1,4-dihydro-4-oxoquinoline-3-carboxylic acid] | 6.39 (≈ 16.8 µM) | ≤ 0.05 | ≤ 0.05 | ≤ 0.05 | 0.1 (≈ 0.264 µM) | 0.39 (≈ 1.03 µM) | ≤ 0.05 | 1.56 (≈ 4.11 µM) | 0.2 (≈ 0.527 µM) | 0.1 (≈ 0.264 µM) | 0.2 (≈ 0.527 µM) | 1.56 (≈ 4.11 µM) | ≤ 0.05 |  |  |  |  |  |  |  |  |
| CC(N)C1CCN(c2nc3c(cc2F)c(=O)c(C(=O)O)cn3C2CC2)C1 (stereo not shown) [Example 19] |  |  |  |  |  |  |  |  |  |  |  |  |  | ≤ 0.05 | 0.20 | ≤ 0.05 | 0.10 | 0.39 | 0.10 | ≤ 0.05 | minimum growth inhibitory concentration (MIC) (S. aureus, 209P): ≤ 0.05 µg/mL; minimum growth inhibitory concentration (MIC) (E. coli, NIHJ): ≤ 0.05 µg/mL; minimum growth inhibitory concentration (MIC) (Ps. maltophilia, IID1275): 0.20 µg/mL; minimum growth inhibitory concentration (MIC) (Ser. marcescens, 13001): ≤ 0.05 µg/mL; minimum growth inhibitory concentration (MIC) (Ps. aeruginosa, 2063): 0.20 µg/mL; minimum growth inhibitory concentration (MIC) (Sh. flexneri, 2a5503): ≤ 0.05 µg/mL |
| CC(N)C1CCN(c2nc3c(cc2F)c(=O)c(C(=O)O)cn3C2CC2)C1 (stereo not shown) [Example 18, 7-[3-(1-Aminoethyl)-1-pyrrolidinyl]-1-1-cyclopropyl-6-fluoro-1,4-dihydro-4-oxo-1,8-naphthylidine-3-carboxylic acid] |  |  |  |  |  |  |  |  |  |  |  |  |  | 0.20 | 0.39 | ≤ 0.05 | 0.20 | 0.39 | 0.20 | 0.10 | minimum growth inhibitory concentration (MIC) (S. aureus, 209P): ≤ 0.05 µg/mL; minimum growth inhibitory concentration (MIC) (E. coli, NIHJ): ≤ 0.05 µg/mL; minimum growth inhibitory concentration (MIC) (Ps. maltophilia, IID1275): 0.20 µg/mL; minimum growth inhibitory concentration (MIC) (Ser. marcescens, 13001): 0.20 µg/mL; minimum growth inhibitory concentration (MIC) (Ps. aeruginosa, 2063): 0.39 µg/mL; minimum growth inhibitory concentration (MIC) (Sh. flexneri, 2a5503): ≤ 0.05 µg/mL |
| CNC(C)C1CCN(c2nc3c(cc2F)c(=O)c(C(=O)O)cn3C2CC2)C1 (stereo not shown) [Example 8] | 0.39 (≈ 1.04 µM) | 0.1 (≈ 0.267 µM) | 0.78 (≈ 2.08 µM) | ≤ 0.05 | 0.2 (≈ 0.534 µM) | 0.78 (≈ 2.08 µM) | 0.39 (≈ 1.04 µM) | 1.56 (≈ 4.17 µM) | 0.39 (≈ 1.04 µM) | 0.1 (≈ 0.267 µM) | 0.39 (≈ 1.04 µM) | 1.56 (≈ 4.17 µM) | ≤ 0.05 |  |  |  |  |  |  |  |  |
| CCn1cc(C(=O)O)c(=O)c2cc(F)c(N3CCC(C(C)(C)N)C3)c(F)c21 (stereo not shown) [Example 12, 7-[3-(1-amino-1-methyl)ethyl-1-pyrrolidinyl]-1-ethyl-6,8-difluoro-1,4-dihydro-4-oxoquinoline-3-carboxylic acid] | 0.39 (≈ 1.03 µM) | ≤ 0.05 | 0.1 (≈ 0.264 µM) | ≤ 0.05 | 0.1 (≈ 0.264 µM) | 0.39 (≈ 1.03 µM) | 0.1 (≈ 0.264 µM) | 1.56 (≈ 4.11 µM) | 0.39 (≈ 1.03 µM) | 0.2 (≈ 0.527 µM) | 0.39 (≈ 1.03 µM) | 1.56 (≈ 4.11 µM) | ≤ 0.05 |  |  |  |  |  |  |  |  |
| CC(N)C1CCN(c2nc3c(cc2F)c(=O)c(C(=O)O)cn3C2CC2)C1 (stereo not shown) [Example 5, 7-[3-(1-Aminoethyl)-1-pyrrolidinyl]-1-cyclopropyl-6-fluoro-1,4-dihydro-4-oxo-1,8-naphthyridine-3-carboxylic acid] |  | ≤ 0.05 | 0.39 (≈ 1.08 µM) | ≤ 0.05 | ≤ 0.05 | 0.39 (≈ 1.08 µM) | 0.2 (≈ 0.555 µM) |  |  | 0.05 (≈ 0.139 µM) |  |  | ≤ 0.05 | 6.20 |  |  |  | 1.56 | 0.39 |  | minimum growth inhibitory concentration (MIC) (Ser. marcescens, 13001): 0.20 µg/mL; minimum growth inhibitory concentration (MIC) (Ps. aeruginosa, 2063): 0.78 µg/mL |
| CCn1cc(C(=O)O)c(=O)c2cc(F)c(N3CCC(C(C)N)C3)c(F)c21 (single isomer, unassigned) [Example 3, 7-[3-(1-Aminoethyl)-1-pyrrolidinyl]-1-ethyl-6,8-difluoro-1,4-dihydro-4-oxoquinoline-3-carboxylic acid] | 0.2 (≈ 0.547 µM) | ≤ 0.05 |  | ≤ 0.05 |  | 0.78 (≈ 2.13 µM) |  | 1.56 (≈ 4.27 µM) | 0.2 (≈ 0.547 µM) |  | 0.2 (≈ 0.547 µM) | 0.39 (≈ 1.07 µM) | ≤ 0.05 |  | 0.39 | 0.20 | 0.39 |  |  | 0.20 |  |
| CCn1cc(C(=O)O)c(=O)c2cc(F)c(N3CCC(C4(N)CC4)C3)c(F)c21 (stereo not shown) [Example 16, 7-[3-(1-aminocyclopropyl)-1-pyrrolidinyl]-1-ethyl-6,8-difluoro-1,4-dihydro-4-oxoquinoline-3-carboxylic acid] | 0.39 (≈ 1.03 µM) | ≤ 0.05 | 0.2 (≈ 0.53 µM) | ≤ 0.05 | 0.2 (≈ 0.53 µM) | 0.39 (≈ 1.03 µM) | 0.39 (≈ 1.03 µM) | 0.78 (≈ 2.07 µM) | 0.39 (≈ 1.03 µM) | 0.2 (≈ 0.53 µM) | 0.39 (≈ 1.03 µM) | 1.56 (≈ 4.13 µM) | ≤ 0.05 |  |  |  |  |  |  |  |  |
| NC1(C2CCN(c3c(F)cc4c(=O)c(C(=O)O)cn(C5CC5)c4c3F)C2)CC1 (stereo not shown) [Example 15] | 0.2 (≈ 0.514 µM) | ≤ 0.05 | ≤ 0.05 | ≤ 0.05 | ≤ 0.05 | 0.2 (≈ 0.514 µM) | 0.2 (≈ 0.514 µM) | 0.39 (≈ 1 µM) | 0.2 (≈ 0.514 µM) | 0.1 (≈ 0.257 µM) | 0.2 (≈ 0.514 µM) | 0.39 (≈ 1 µM) | ≤ 0.05 |  |  |  |  |  |  |  |  |
| CNC(C)C1CCN(c2c(F)cc3c(=O)c(C(=O)O)cn(C4CC4)c3c2F)C1 (single isomer, unassigned) [Example 6, 1-Cyclopropyl-6,8-difluoro-1,4-dihydro-7-[3-(1-methylaminoethyl)-1-pyrrolidinyl]-4-oxoquinoline-3-carboxylic acid] | 0.2 (≈ 0.511 µM) | ≤ 0.05 |  | ≤ 0.05 | 0.1 (≈ 0.255 µM) | 0.2 (≈ 0.511 µM) |  | 0.78 (≈ 1.99 µM) |  | 0.1 (≈ 0.255 µM) | 0.2 (≈ 0.511 µM) | 0.39 (≈ 0.996 µM) | ≤ 0.05 |  | 0.20 |  | 0.20 |  | 0.20 |  |  |
